EP2802310B1, “NEW USE OF ZERUMBONE AND COMPOSITIONS COMPRISING ZERUMBONE” (Sederma, priority 2012, dated 2013)

Key:
Mature human adipocytes [1] = experiment: Lipolytic effect, released glycerol after 3 hours; type: cell-based; conditions: Adipocyte, Zerumbone 6ppm, contact time 3h, read-out: released glycerol, versus negative control
Experimental: In a first test, mature human adipocytes were treated with the product to evaluate for 3 hours, then titration of the released glycerol, reflecting lipolysis, was measured in the medium.

collagenase = experiment: Dermal destruction by proteases in skin explants, collagenase; conditions: 18ppm of zerumbone co-injected with the protease; five days at 37°C; confocal microscope
Experimental: Principle: Once prepared, skin explants (person, abdominal skin) received an injection of elastase or collagenase that could proteolyse 30 µmol/min of elastin or collagen. In another case, the invention product (titrated at 18ppm of zerumbone) was co-injected with the protease to assess its ability to inhibit the proteolysis of constituents of the dermis, and thus of protection of the dermis. After five days of incubation at 37°C, the result was observed through a confocal microscope and compared to what was obtained in the case without protease at the same depth (60 µm).

Mature human adipocytes [2] = experiment: Lipolytic effect, daily titration of released glycerol over 3 days; type: cell-based; conditions: Homo sapiens, Adipocyte, Zerumbone 6ppm, read-out: released glycerol, versus negative control
Experimental: (§1) Mature human adipocytes were treated with zerumbone to evaluate daily for 3 days. A daily titration of the released glycerol, reflecting lipolysis, was measured in the medium, before the media were changed in order to monitor the long-term effect.
In a second test, mature human adipocytes were treated with the product to evaluate daily for 3 days. A daily titration of the released glycerol was performed in the media, just before changing of the media in order to monitor the long term effect. Table 19: Comparison of the lipolytic effect of caffeine, zerumbone and of a mixture of caffeine and zerumbone on hypertrophied adipocytes in monolayer (n=4) at short and long term.

mature adipocytes = experiment: Intracellular triglyceride quantity in mature adipocytes; type: cell-based, human; conditions: Zerumbone 6ppm
Experimental: as §1
Table 5: comparison of the intracellula triglyceride quantity found in mature adipocytes
Table 20: Comparison of the intracellular triglyceride content found in the mature adipocytes; compared effect of zerumbone, caffeine and of a mixture of zerumbone and caffeine.

Human preadipocytes = experiment: Triglyceride content after preadipocyte differentiation (glycerol released after lipase); type: cell-based; conditions: 10 days
Experimental: Human preadipocytes were plated and induced to differentiate at confluence in the presence of a cocktail of specific inducers and evaluated products. After 10 days, the triglyceride content of the culture was estimated by measuring the released glycerol after the action of a lipase.

`C/C1=C\CC(C)(C)/C=C/C(=O)/C(C)=C/CC1` [Zerumbone, 2E, 6E, 9E-Humulatrien-8-one] was tested, and the activation at 6 ppm (Mature human adipocytes [1]) was 0%, the “integrity of the dermis under collagenase stress” value (collagenase) was “retains its integrity” and the activation at 6 ppm (Mature human adipocytes [2]; 24 h, contact time 1 day) was 72%. It also gave an activation at 6 ppm (Mature human adipocytes [2]; 48 h, contact time 2 days) of 141%, an activation at 6 ppm (Mature human adipocytes [2]; 72 h, contact time 3 days) of 246% and an inhibition at 6 ppm (mature adipocytes; Homo sapiens, Adipocyte, 72 h, read-out: Triglycerides Variation (%)) of 37%. The Triglycerides (mature adipocytes) was 4947 ± 236 µM/10^6cell, the “Triglycerides Variation (%)” value (mature adipocytes; 4320 min) was -37%; p<0.01 and the “[TG]” value (Human preadipocytes; 3ppm) was 3562 +/- 233 µ U/ 10^6 cell. The “[TG]” value (Human preadipocytes; 5ppm) was 2966 +/- 128 µ U/ 10^6 cell, the inhibition at 3 ppm (Human preadipocytes; Homo sapiens, 240 h, 3ppm, read-out: [TG] % Var / control) was 15% and the inhibition at 5 ppm (Human preadipocytes; Homo sapiens, 240 h, 5ppm, read-out: [TG] % Var / control) was 29%.
